# Laboratory results published in ChEMBL document CHEMBL1133642, “Difluoro ketone peptidomimetics suggest a large S1 pocket for Alzheimer's gamma-secretase: implications for inhibitor design” (J Med Chem, 2000).
# pIC50: −log10 of the molar value.
# Experiment: Concentration required for 50% inhibition of Amyloid beta protein production in Amyloid precursor protein (APP)-transfected Chinese hamster ovary(CHO) cells
# Format: functional
# Details: Cricetulus griseus
row,SMILES,pIC50
1,CCC(C)[C@H](NC(=O)[C@@H](NC(=O)C(F)(F)C(=O)[C@@H](NC(=O)[C@@H](NC(=O)OC(C)(C)C)C(C)C)C(C)CC)C(C)C)C(=O)OC (stereo partly specified),5.22
2,CCC(C)[C@H](NC(=O)[C@@H](NC(=O)C(F)(F)C(=O)[C@H](C)NC(=O)[C@@H](NC(=O)OC(C)(C)C)C(C)C)C(C)C)C(=O)NC (stereo partly specified),> 4.00
3,CCC(C)[C@H](NC(=O)[C@@H](NC(=O)C(F)(F)C(=O)[C@H](C)NC(=O)[C@@H](NC(=O)OC(C)(C)C)C(C)C)C(C)C)C(=O)OCc1ccccc1 (stereo partly specified),5.40
4,CCC(C)[C@H](NC(=O)[C@@H](NC(=O)C(F)(F)C(=O)[C@H](CC1CCCCC1)NC(=O)[C@@H](NC(=O)OC(C)(C)C)C(C)C)C(C)C)C(=O)OCc1ccccc1 (stereo partly specified),5.22
5,CCC(C)[C@H](NC(=O)[C@@H](NC(=O)C(F)(F)C(=O)[C@@H](NC(=O)[C@@H](NC(=O)OC(C)(C)C)C(C)C)C(C)C)C(C)C)C(=O)OC (stereo partly specified),5.05
6,CCC(C)[C@H](NC(=O)[C@@H](NC(=O)C(F)(F)C(=O)[C@H](CC1CCCCC1)NC(=O)[C@@H](NC(=O)OC(C)(C)C)C(C)C)C(C)C)C(=O)OC (stereo partly specified),5.40
7,CCOC(=O)[C@@H](NC(=O)[C@@H](NC(=O)C(F)(F)C(=O)[C@H](C)NC(=O)[C@@H](NC(=O)OC(C)(C)C)C(C)C)C(C)C)C(C)CC (stereo partly specified),5.05

# Next, values leading:
row,pIC50,SMILES
1,4.82,CCC(C)[C@H](NC(=O)[C@@H](NC(=O)C(F)(F)C(=O)[C@H](C)NC(=O)[C@@H](NC(=O)OC(C)(C)C)C(C)C)C(C)C)C(=O)OC (stereo partly specified)
2,4.60,CCC(C)[C@H](NC(=O)[C@@H](NC(=O)C(F)(F)C(=O)[C@H](C)NC(=O)[C@@H](NC(=O)OC(C)(C)C)C(C)C)C(C)C)C(=O)N(C)C (stereo partly specified)
3,5.05,CCC(C)[C@H](NC(=O)[C@@H](NC(=O)C(F)(F)C(=O)[C@@H](NC(=O)[C@@H](NC(=O)OC(C)(C)C)C(C)C)c1ccccc1)C(C)C)C(=O)OC (stereo partly specified)

# Experiment: Inhibition of Amyloid beta protein production at 25 uM in Amyloid precursor protein (APP)-transfected Chinese hamster ovary(CHO) cells
# Format: functional
# Details: Cricetulus griseus
row,SMILES,inhibition at 25 µM
1,CCC(C)[C@H](NC(=O)[C@@H](NC(=O)C(F)(F)C(=O)[C@H](C)NC(=O)[C@@H](NC(=O)OC(C)(C)C)C(C)C)C(C)C)C(=O)OC (stereo partly specified),≥ 65%
